Numbered stars: 1 amine (or outer) side, 2 acyl side, 3 side chain; on linkers, the order of the positions; unused ones are H or OH. Bridge positions count the residues as written; N and C are the ends. Square brackets hold non-standard residues; d marks the D form. Peptide text beside a SMILES is read from it. * marks the point of attachment. ξ: configuration not given here. X4 = O=C(O)CN1CCN(CC(=O)O)CCN(CC(=O)N[C@H]2CC[C@H](CC(=O)*)CC2)CCN(CC(=O)O)CC1; DOTA = O=C(O)CN1CCN(CC(=O)O)CCN(CC(=O)*)CCN(CC(=O)O)CC1; Trp(7-Me) = Cc1cccc2c(C[C@H](N)C(=O)O)c[nH]c12; Trp(7-aza) = N[C@@H](Cc1c[nH]c2ncccc12)C(=O)O; PEG8 = NCCOCCOCCOCCOCCOCCOCCOCCOCCC(=O)O; 2Nal = N[C@@H](Cc1ccc2ccccc2c1)C(=O)O; pXylylene = c1cc(C[*:2])ccc1C[*:1]; Nva(3-Et) = CCC(CC)[C@H](N)C(=O)O; 3Pal = N[C@@H](Cc1cccnc1)C(=O)O; NMeK = CN[C@@H](CCCCN)C(=O)O; CH2 = C([*:1])[*:2]; Ahx = NCCCCCC(=O)O; ξP = O=C(O)C1CCCN1

For this assay, the target named is T1, human DLL3 (Homo sapiens, UniProt Q9NYJ7).
T1 sequence (Q9NYJ7 27-618): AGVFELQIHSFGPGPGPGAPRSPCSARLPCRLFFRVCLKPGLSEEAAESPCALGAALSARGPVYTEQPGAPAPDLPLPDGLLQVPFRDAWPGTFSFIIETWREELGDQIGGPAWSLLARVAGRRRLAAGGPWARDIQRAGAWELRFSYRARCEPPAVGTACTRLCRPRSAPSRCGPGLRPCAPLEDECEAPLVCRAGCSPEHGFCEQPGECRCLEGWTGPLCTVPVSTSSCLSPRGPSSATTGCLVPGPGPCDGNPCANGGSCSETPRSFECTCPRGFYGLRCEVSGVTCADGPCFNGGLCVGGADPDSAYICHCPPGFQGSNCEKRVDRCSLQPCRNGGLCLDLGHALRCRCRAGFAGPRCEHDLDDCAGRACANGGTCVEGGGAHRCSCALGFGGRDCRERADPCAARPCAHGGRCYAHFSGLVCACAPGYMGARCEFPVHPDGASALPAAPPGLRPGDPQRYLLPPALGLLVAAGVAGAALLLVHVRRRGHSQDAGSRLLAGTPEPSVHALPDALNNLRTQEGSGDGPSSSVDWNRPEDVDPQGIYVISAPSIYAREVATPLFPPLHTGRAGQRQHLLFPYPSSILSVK
Briefly: Affinity determination by Surface Plasmon Resonance (SPR). It counts as binding. As to conditions: 25° C., biotinylated human DLL3 immobilized on streptavidin sensor chip, 1:1 binding model; read-out: SPR KD. An outline of the steps:
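Kinetic and affinity constants were derived by fitting sensorgrams to a 1:1 binding model. Graded compound concentrations flowed at 100 μL/minute in 20 mM phosphate running buffer with 2% DMSO over streptavidin-immobilized biotinylated human DLL3, reference-subtracted.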
As usually defined, the Kd is the equilibrium constant for the complex coming apart. As for `CC[C@H](C)[C@H](NC(=O)[C@@H](NC(=O)[C@H](Cc1c[nH]c2ccccc12)NC(C)=O)[C@@H](C)O)C(=O)N[C@H]1CSCc2ccc(cc2)CSC[C@@H](C(=O)N[C@@H](Cc2c[nH]c3ccccc23)C(=O)N2CCC[C@H]2C(=O)N[C@H](CCCCNC(=O)CN2CCN(CC(=O)O)CCN(CC(=O)O)CCN(CC(=O)O)CC2)C(N)=O)NC(=O)[C@H](CC(=O)O)NC(=O)[C@H](Cc2cnc[nH]2)NC(=O)[C@H](Cc2ccc3ccccc3c2)NC(=O)[C@H](CC(N)=O)NC(=O)[C@H](CC(N)=O)NC1=O` [compound 256, Ac-W-T-I-C(3)(pDBX)-N-N-(2Nal)-H-D-C(2)-W-P-[D-Lys(DOTA)]-NH2] (Ac-WTICNN[2Nal]HDCWP[dK](DOTA)-NH2; linker 4-10 via pXylylene), the dissociation constant (Kd) fell in the range of 1 to 10 nM.

Take `CCC(CC)[C@H](NC(=O)[C@@H](NC(=O)[C@H](Cc1c[nH]c2ccccc12)NC(C)=O)[C@@H](C)O)C(=O)N[C@H]1CSSC[C@@H](C(=O)N[C@@H](Cc2c[nH]c3ncccc23)C(=O)N2CCC[C@H]2C(=O)N[C@H](CCCCNC(=O)C[C@H]2CC[C@H](NC(=O)CN3CCN(CC(=O)O)CCN(CC(=O)O)CCN(CC(=O)O)CC3)CC2)C(N)=O)NC(=O)[C@H](CC(=O)O)NC(=O)[C@H](Cc2cnc[nH]2)NC(=O)[C@H](Cc2ccc3ccccc3c2)NC(=O)[C@H](CC(N)=O)NC(=O)[C@H](CC(N)=O)NC1=O` [compound 202, Ac-W-T-(Env)-C(3)-N-N-(2Nal)-H-D-C(3)-(7-Aza-W)-P-[D-Lys(Chx-DOTA)]-NH2] (Ac-WT[Nva(3-Et)]CNN[2Nal]HDC[Trp(7-aza)]P[dK](X4)-NH2; disulfide 4-10): the Kd lay within 1 to 10 nM.

With `CC[C@H](C)[C@H](NC(=O)[C@@H](NC(=O)[C@H](Cc1c[nH]c2ccccc12)NC(C)=O)[C@@H](C)O)C(=O)N[C@H]1CSSC[C@@H](C(=O)N[C@@H](Cc2c[nH]c3ccccc23)C(=O)N2CCC[C@H]2C(=O)N[C@H](CCCCNC(=O)CN2CCN(CC(=O)O)CCN(CC(=O)O)CCN(CC(=O)O)CC2)C(N)=O)NC(=O)[C@H](CC(=O)O)NC(=O)[C@H](CCC(=O)O)NC(=O)[C@H](Cc2c[nH]c3ccccc23)NC(=O)[C@H](CCC(=O)O)NC(=O)[C@H](CC(N)=O)NC1=O` [compound 276, Ac-W-T-I-C(3)-N-Glu-W-Glu-D-C(3)-W-P-[D-Lys(DOTA)]-NH2] (Ac-WTICNEWEDCWP[dK](DOTA)-NH2; disulfide 4-10), the Kd lay in the range of 10 to 100 nM.

As for `CC[C@H](C)[C@H](NC(=O)[C@@H](NC(=O)[C@H](Cc1c[nH]c2ccccc12)NC(C)=O)[C@@H](C)O)C(=O)N[C@H]1CSSC[C@@H](C(=O)N[C@@H](Cc2c[nH]c3c(C)cccc23)C(=O)N2CCC[C@H]2C(=O)N[C@H](CCCCNC(=O)CN2CCN(CC(=O)O)CCN(CC(=O)O)CCN(CC(=O)O)CC2)C(N)=O)NC(=O)[C@H](CC(=O)O)NC(=O)[C@H](Cc2cnc[nH]2)NC(=O)[C@H](Cc2c[nH]c3ccccc23)NC(=O)[C@H](CC(N)=O)NC(=O)[C@H](CC(N)=O)NC1=O` [compound 298, Ac-W-T-I-C(3)-N-N-W-H-D-C(3)-(7-Me-W)-P-[D-Lys(DOTA)]-NH2] (Ac-WTICNNWHDC[Trp(7-Me)]P[dK](DOTA)-NH2; disulfide 4-10), the Kd was under 1 nM.

Consider `CC[C@H](C)[C@H](NC(=O)[C@@H](NC(=O)[C@H](Cc1c[nH]c2ccccc12)NC(C)=O)[C@@H](C)O)C(=O)N[C@H]1CSSC[C@@H](C(=O)N[C@@H](Cc2c[nH]c3ccccc23)C(=O)N2CCC[C@H]2C(=O)N2CCC[C@@H]2C(=O)NCCOCCOCCOCCOCCOCCOCCOCCOCCC(=O)N[C@H](CCCCNC(=O)CN2CCN(CC(=O)O)CCN(CC(=O)O)CCN(CC(=O)O)CC2)C(N)=O)NC(=O)[C@H](CC(=O)O)NC(=O)[C@H](Cc2cnc[nH]2)NC(=O)[C@H](Cc2ccc3ccccc3c2)NC(=O)[C@H](CC(N)=O)NC(=O)[C@H](CC(N)=O)NC1=O` [compound 235, Ac-W-T-I-C(3)-N-N-(2Nal)-H-D-C(3)-W-P-(D-Pro)-PEG8-[D-Lys(DOTA)]-NH2] (Ac-WTICNN[2Nal]HDCWP[dP][PEG8][dK](DOTA)-NH2; disulfide 4-10), for which the Kd is under 1 nM.

With `CC[C@H](C)[C@H](NC(=O)[C@@H](NC(=O)[C@H](Cc1c[nH]c2c(C)cccc12)NC(C)=O)[C@@H](C)O)C(=O)N[C@H]1CSCSC[C@@H](C(=O)N[C@@H](Cc2c[nH]c3ccccc23)C(=O)N2CCCC2C(=O)N[C@H](CCCCNC(=O)CN2CCN(CC(=O)O)CCN(CC(=O)O)CCN(CC(=O)O)CC2)C(N)=O)NC(=O)[C@H](CC(=O)O)NC(=O)[C@H](Cc2cnc[nH]2)NC(=O)[C@H](Cc2ccc3ccccc3c2)NC(=O)[C@H](CC(N)=O)NC(=O)[C@H](CC(N)=O)NC1=O` (stereo partly drawn) [compound 330, Ac-7MeW-T-I-C(1)-N-N-(2Nal)-H-D-C(1)-W-P-[D-Lys(DOTA)]-NH2] (Ac-[Trp(7-Me)]TICNN[2Nal]HDCW[ξP][dK](DOTA)-NH2; linker 4-10 via CH2), the Kd is under 1 nM.

`CC[C@H](C)[C@H](NC(=O)[C@@H](NC(=O)[C@H](Cc1c[nH]c2ccccc12)NC(C)=O)[C@@H](C)O)C(=O)N[C@H]1CSCSC[C@@H](C(=O)N[C@@H](Cc2c[nH]c3ccccc23)C(=O)N2CCCC2C(=O)N[C@@H](CCCCNC(=O)CN2CCN(CC(=O)O)CCN(CC(=O)O)CCN(CC(=O)O)CC2)C(N)=O)NC(=O)[C@H](CC(=O)O)NC(=O)[C@H](Cc2cnc[nH]2)NC(=O)[C@H](Cc2ccc3ccccc3c2)NC(=O)[C@H](CC(N)=O)NC(=O)[C@H](CC(N)=O)NC1=O` (stereo partly drawn) [compound 329, Ac-W-T-I-C(1)-N-N-(2Nal)-H-D-C(1)-W-P-[L-Lys(DOTA)]-NH2] (Ac-WTICNN[2Nal]HDCW[ξP]K(DOTA)-NH2; linker 4-10 via CH2): the Kd is under 1 nM.

On to `CC[C@H](C)[C@H](NC(=O)[C@@H](NC(=O)[C@H](Cc1c[nH]c2ccccc12)NC(C)=O)[C@@H](C)O)C(=O)N[C@H]1CSSC[C@@H](C(=O)N[C@@H](Cc2c[nH]c3ccccc23)C(=O)N2CCC[C@H]2C(=O)NCCCCCC(=O)NCCCCCC(=O)N[C@H](CCCCNC(=O)CN2CCN(CC(=O)O)CCN(CC(=O)O)CCN(CC(=O)O)CC2)C(N)=O)NC(=O)[C@H](CC(=O)O)NC(=O)[C@H](Cc2cnc[nH]2)NC(=O)[C@H](Cc2ccc3ccccc3c2)NC(=O)[C@H](CC(N)=O)NC(=O)[C@H](CC(N)=O)NC1=O` [compound 372, Ac-W-T-I-C(3)-N-N-(2Nal)-H-D-C(3)-W-P-(Ahx)2-[D-Lys(DOTA)]-NH2] (Ac-WTICNN[2Nal]HDCWP[Ahx][Ahx][dK](DOTA)-NH2; disulfide 4-10), for which the Kd was under 1 nM.

Consider `CC[C@H](C)[C@H](NC(=O)[C@@H](NC(=O)[C@H](Cc1c[nH]c2ccccc12)NC(C)=O)[C@@H](C)O)C(=O)N[C@H]1CSSC[C@@H](C(=O)N[C@@H](Cc2c[nH]c3ccccc23)C(=O)N2CCC[C@H]2C(=O)N[C@H](CCCCNC(=O)CN2CCN(CC(=O)O)CCN(CC(=O)O)CCN(CC(=O)O)CC2)C(N)=O)NC(=O)[C@H](CC(=O)O)NC(=O)[C@H](CCC(=O)O)NC(=O)[C@H](Cc2c[nH]c3ccccc23)NC(=O)[C@H](CCC(=O)O)NC(=O)[C@H](CCC(=O)O)NC1=O` [compound 275, Ac-W-T-I-C(3)-Glu-Glu-W-Glu-D-C(3)-W-P-[D-Lys(DOTA)]-NH2] (Ac-WTICEEWEDCWP[dK](DOTA)-NH2; disulfide 4-10), for which the Kd lay within 1 to 10 nM.

For `CC[C@H](C)[C@H](NC(=O)[C@@H](NC(=O)[C@H](Cc1c[nH]c2ccccc12)NC(C)=O)[C@@H](C)O)C(=O)N[C@H]1CSSC[C@@H](C(=O)N[C@@H](Cc2c[nH]c3ccccc23)C(=O)N(C)[C@@H](CCCCNC(=O)CN2CCN(CC(=O)O)CCN(CC(=O)O)CCN(CC(=O)O)CC2)C(N)=O)NC(=O)[C@H](CC(=O)O)NC(=O)[C@H](Cc2cnc[nH]2)NC(=O)[C@H](Cc2ccc3ccccc3c2)NC(=O)[C@H](CC(N)=O)NC(=O)[C@H](CC(N)=O)NC1=O` [compound 352, Ac-W-T-I-C(3)-N-N-(2Nal)-H-D-C(3)-W-[NmeK(DOTA)]-NH2] (Ac-WTICNN[2Nal]HDCW[NMeK](DOTA)-NH2; disulfide 4-10), the Kd was under 1 nM.

Take `CC[C@H](C)[C@H](NC(=O)[C@@H](NC(=O)[C@H](Cc1c[nH]c2ccccc12)NC(C)=O)[C@@H](C)O)C(=O)N[C@H]1CSSC[C@@H](C(=O)N[C@@H](Cc2c[nH]c3ccccc23)C(=O)N2CCC[C@H]2C(=O)N[C@H](CCCCNC(=O)CN2CCN(CC(=O)O)CCN(CC(=O)O)CCN(CC(=O)O)CC2)C(N)=O)NC(=O)[C@H](CC(=O)O)NC(=O)[C@H](Cc2cccnc2)NC(=O)[C@H](Cc2ccc3ccccc3c2)NC(=O)[C@H](CC(N)=O)NC(=O)[C@H](CC(N)=O)NC1=O` [compound 366, Ac-W-T-I-C(3)-N-N-(2Nal)-(3Pya)-D-C(3)-W-P-[D-Lys(DOTA)]-NH2] (Ac-WTICNN[2Nal][3Pal]DCWP[dK](DOTA)-NH2; disulfide 4-10): the Kd is under 1 nM.

For the origin of these results see patent US20250011368A1, “DLL3 TARGETING PEPTIDES AND CONSTRUCTS THEREOF” (MARIANA ONCOLOGY INC., priority 2023, published 2025).
